{"source": "patent US11510964B2", "about": "“Macrocyclic peptides to decrease c-Myc protein levels and reduce cancer cell growth” (University of Kansas, priority 2017, dated 2022)", "key": {"[1]": {"system": "transfected HEK-293 cells", "experiment": "c-Myc overexpression, Annexin V-APC/PI apoptosis assay", "type": "cell-based, human", "details": "10 μM, 48 h", "method": "The extent of apoptosis was analyzed by detecting surface expression of phosphatidylserine on apoptotic cells using an Annexin V-APC/PI dual staining apoptosis detection kit I (BD Biosciences) according to the manufacturer's protocol. Following treatment of PC-3 cells with 10 μM [D-Trp]CJ-15,208 or vehicle for 24 h or 48 h, the cells were collected, washed twice with cold PBS, and resuspended in 1× binding buffer at a concentration of 1×10^6 cells/mL. Cell suspension (100 μL) was transferred to a 5 ml culture tube, and 5 μL of Annexin V-APC and 25 μL of PI (50 μg/mL) were added. The cells were incubated for 15 min at room temperature in the dark with gentle vortexing, 400 μL of 1× binding buffer was then added to each sample, and the samples were analyzed using a Beckman-Coulter MoFlo XDP flow cytometer within one hour. The number of viable, apoptotic and necrotic cells were quantified using FlowJo v10.0.7. The apoptosis fraction (%) was calculated as (number of apoptotic cells/the number of total cells observed)×100%.^38\nForced expression of c-Myc in HEK 293 cells was performed using X-temeGENE HP #6366244001 (Sigma). Cells were cultured in antibiotic free DMEM supplemented with 10% FBS and transfected with pcDNA3-HA-HA-c-Myc #74164 (Addgene). Empty-vector pcDNA3-EV was used as a control. […] Samples were analyzed using a BD FACSCanto-II cell analyzer and quantified in FlowJo v10.2. […]"}, "[2]": {"details": "cited from earlier work"}, "22Rv1 cells": {"system": "22Rv1 cells", "type": "cell-based, human", "details": "read-out: IC50, cell growth", "method": "(§1) Human prostate cancer PC-3 cells were cultured and maintained in EMEM (ATCC), non-prostate HEK (human embryonic kidney) cells were cultured in DMEM, human prostate cancer DU145, LNCaP, 22Rv1 cells were cultured in RPMI 1640 (ATCC), and normal BPH-1 prostate cells and prostate cancer C4-2 cell line were cultured in RPMI 1640 (ATCC), all containing 10% fetal bovine serum (Atlanta Biologicals) and 1% penicillin/streptomycin (Invitrogen). Cells were grown at 37° C. in humidified air with 5% CO2 and passaged every fourth to fifth day following trypsinization with trypsin/EDTA (Invitrogen).^16\n(§2) PC-3, LNCaP, DU 145, 22Rv1, C4-2, BPH-1, and HEK cells were grown to a density of 2000 cells/well in 96 well plates and treated with [D-Trp]CJ-15,208 or other peptides for 24-72 h in duplicate. Media containing [D-Trp]CJ-15,208 was changed every 24 h. The proliferation of treated cells was determined using the cell proliferation reagent WST-1 (Roche) per the manufacturer's instructions and compared to […] control cells in 1% DMSO in media. After treatment with compound 10 μL of the reagent was added to the well in 100 μL culture media, and the cells incubated at 37° C. for 30 min. The absorbance of the media in each well was measured at […] using a plate reader (BioTek). The percentage cell proliferation was normalized to vehicle treated control cells calculated as: (mean absorbance of sample/mean absorbance of control cells)×100.^38\n(§3) Each experiment was performed in triplicate unless otherwise stated in the figure legend. GraphPad Prism 5 was used to determine IC50 values. Data represent the mean value+/−SEM. Compound vs. vehicle treated cells in the cell cycle phase and apoptosis experiments (FIGS. 5-8) were compared using the student's t-test, with a two-tailed, unpaired method, using the Prism software. The effects of compound vs. vehicle treatment on protein levels (FIG. 10) were evaluated by one-way ANOVA with Dunnett's test for multiple comparisons."}, "DU145 cells": {"system": "DU145 cells", "type": "cell-based, human", "details": "read-out: IC50, cell growth", "method": "as §1, §2, §3"}, "PC-3 cells": {"system": "PC-3 cells", "type": "cell-based, human", "details": "read-out: IC50, cell growth", "method": "as §1, §2, §3"}, "LNCaP cells": {"system": "LNCaP cells", "type": "cell-based, human", "details": "read-out: IC50, cell growth", "method": "as §1, §2, §3"}, "Erk in PC-3 cells": {"system": "Erk in PC-3 cells", "experiment": "Western blot of p-Erk/total Erk protein levels", "type": "cell-based, human", "method": "Cells were seeded in 6 well plates at a density of 1×10^5 cells/well and grown to 75% confluence. Cells were treated with [D-Trp]CJ-15,208 at the indicated concentrations. Cells were then harvested as described above, and the cell pellets lysed in RIPA buffer consisting of 10 mM Tris HCl, pH 8.0, 150 mM NaCl, 1 mM EDTA, 1% Triton-X-100, 0.1% SDS, 1% sodium deoxycholate, and a protease inhibitor cocktail #P8340 (Sigma). Cell lysates were centrifuged at 13×1000 rpm for 15 min and the supernatants collected. The total protein concentration was measured in cell lysates using the standard Bradford assay. SDS gel electrophoresis was performed using 4-20% polyacrylamide gel (BioRad). […] Signal densities of the protein bands were determined using ImageJ software (NIH) and normalized to the internal loading control (actin).\nEach experiment was performed in triplicate unless otherwise stated in the figure legend. […] The effects of compound vs. vehicle treatment on protein levels (FIG. 10) were evaluated by one-way ANOVA with Dunnett's test for multiple comparisons."}}, "note": "Read-outs that look alike come from different tables or passages of the source. Non-standard residues stand in square brackets, D forms with d. Residues, ends and D or L forms follow the SMILES beside them.", "data": [{"smiles": "O=C1N[C@H](Cc2c[nH]c3ccccc23)C(=O)N[C@@H](Cc2ccccc2)C(=O)N2CCC[C@@H]2C(=O)N[C@H]1Cc1ccccc1", "note": "[[D-Trp]CJ-15,208, cyclo[Phe-D-Pro-Phe-D-Trp]] (cyclo(F[dP]F[dW]))", "values": [{"measurement": "early apoptosis", "setting": "[1]; HEK-293 overexpressing c-Myc", "result": "significant increase in early apotosis"}, {"measurement": "early apoptosis", "setting": "[1]; HEK-293 transfected with empty vector", "result": "no significant difference"}, {"measurement": "activity after oral administration", "setting": "[2]", "result": "active after oral administration"}, {"measurement": "IC50", "setting": "22Rv1 cells; 48 h", "result": "8.8 ± 4", "unit": "µM"}, {"measurement": "IC50", "setting": "22Rv1 cells; 72 h", "result": "4 ± 0.8", "unit": "µM"}, {"measurement": "IC50", "setting": "DU145 cells; 48 h", "result": "1.2 ± 0.2", "unit": "µM"}, {"measurement": "IC50", "setting": "DU145 cells; 72 h", "result": "0.7 ± 0.1", "unit": "µM"}, {"measurement": "IC50", "setting": "PC-3 cells; 48 h", "result": "16.5 ± 0.7", "unit": "µM"}, {"measurement": "IC50", "setting": "PC-3 cells; 72 h", "result": "2 ± 1", "unit": "µM"}, {"measurement": "IC50", "setting": "LNCaP cells; 48 h", "result": "> 50", "unit": "µM"}, {"measurement": "IC50", "setting": "LNCaP cells; 72 h", "result": "3 ± 1", "unit": "µM"}, {"measurement": "total Erk protein levels", "setting": "Erk in PC-3 cells; PC-3, 48 h", "result": "did not decrease significantly"}, {"measurement": "cellular levels of p-Erk", "setting": "Erk in PC-3 cells; PC-3, increasing concentrations, 48 h", "result": "did not change significantly"}]}]}
